Measured values: US5462933A, “Modified bile acid conjugates, and their use as pharmaceuticals” (Hoechst Aktiengesellschaft, priority 1989, dated 1995)

Assays:
[1] = molecular target: T1, 67,000 (albumin) (Rattus norvegicus, UniProt P02770); experiment: Photoaffinity labeling of bile acid-binding proteins in hepatocytes in the presence of competitor; settings: decrease in labeling relative to control
T1 construct: freshly isolated hepatocytes from rat liver; endogenous in cells; host or cells: freshly isolated rat hepatocytes
Excerpt: (§1) The molecules of these physiologically relevant binding proteins for bile acids were identified and characterized by the method of photoaffinity labeling. The principle of this method consists in binding a photoreactive radioactively labeled bile acid derivative to the physiological binding protein analogously to the natural bile acids. By irradiation with UV light, highly reactive chemical intermediates such as carbenes, nitrenes or radicals are generated in this derivative which, owing to their high reactivity, immediately react with the binding proteins by addition to double bonds or insertion in single bonds and bind covalently to these. By means of this covalent linkage of the radioactive bile acid derivative with the binding protein, the binding proteins are then also radioactively labeled and can be identified by a separation of the various proteins of a liver cell, for example by electrophoresis, and their molecular weight determined.
If such a photoaffinity labeling is carried out in the presence of a substance X' which also binds to the bile acid-binding proteins, then X' will compete with the radioactive bile acid derivative for binding to the bile acid-binding proteins; the radioactive labeling of the corresponding binding proteins will thus be lower in the presence of X'. […]

[2] = tested on: 33,000 (binding protein in mitochondria); experiment: as above; design: species or system rat
Excerpt: as §1
(§2) If such a photoaffinity labeling is carried out in the presence of a substance X' which also binds to the bile acid-binding proteins, then X' will compete with the radioactive bile acid derivative for binding to the bile acid-binding proteins; the radioactive labeling of the corresponding binding proteins will thus be lower in the presence of X'.
(§3) 3.6×10^6 freshly isolated hepatocytes from rat liver (about 3 mg of protein) in 1.5 ml of buffer I (118 mM NaCl, 4.74 mM KCl, 0.59 mM KH2 PO4, 0.59 mM Na2 HPO4 ×2 H2 O, 1.185 mM MgCl2 ×6 H2 O, 24.87 mM NaHCO3, 1.25 mM CaCl2, 5.5 mM D-glucose, pH 7.35, buffer aerated with carbogen (95% O2 /5% CO2) for 1 h) were incubated at 37° C. […] in the dark with 1.25 μM (25 μCi) of (7,7-azo-3α-12α-dihydroxy-5β[3-^3 H]cholan-24-oyl)-2-aminoethanesulfonic acid in the absence or in the presence of 250 μM "Example 3" and then irradiated at […] with 16 RPR 3500 Å-lamps for 5 min in a Rayonet RPR-100 photoreactor. The cell suspension was then diluted with 10 ml of ice-cold buffer I and the cells sedimented by centrifuging at 1000×g for 3 minutes. The cells were resuspended again in 10 ml of buffer I and again sedimented by centrifugation. The precipitate was taken up in 600 μl of tris/HCl buffer (pH 6.8)/2% sodium dodecylsulfate (SDS)/5% 2-mercaptoethanol/10% glycerol/0.001% Bromophenol blue, heated to 90° C. for 5 min and centrifuged at 40,000×g for 20 min. The clear supernatant containing the solubilized proteins was used subsequently. In each case 100 μl (500 μg of protein) were applied to discontinuous SDS slab gels (200×170×2.7 mm, total acrylamide concentration 12%) and the proteins were separated by electrophoresis at a voltage of 50 V. After the electrophoresis, the gels were fixed in 12.5% strength trichloroacetic acid solution and stained using 0.08% Serva blue R 250 solution in 25% ethanol/8% acetic acid/67% water. After destaining, the gels were equilibrated in 1M sodium salicylate solution in 70% methanol for 20 min and then dried. The distribution of the radioactively labeled proteins was determined by the fluorographic method by placing the dried gels on Kodak-X-Omat AR X-ray films and exposing at -80° C. for 14 d. The blackened films were measured by densitometry. The decrease in the labeling of the various bile acid-binding proteins owing to the presence of "Example 3" during the photoaffinity labeling is given in % relative to the control.

[3] = tested on: 36,000 (transport protein in the cytoplasm); experiment: as above; design: species or system rat
Excerpt: as §1, §2, §3

[4] = tested on: 43,000 (cytoskeletal protein); experiment: as above; design: species or system rat
Excerpt: as §1, §2, §3

[5] = tested on: 48,000 (membrane transport protein); experiment: as above; design: species or system rat
Excerpt: as §1, §2, §3

[6] = tested on: 54,000 (membrane transport protein); experiment: as above; design: species or system rat
Excerpt: as §1, §2, §3

[7] = tested on: liver cell proteins; experiment: Alkylation of liver cell proteins in freshly isolated hepatocytes; assay type: cell-based, rat
Protocol: Freshly isolated hepatocytes (2×10^6) in 2 ml of buffer I were incubated at 37° C. with 30 μCi of "Example 5". After 10, 30, 40 and 60 min, in each case 500 μl of cell suspension (500 μg of protein) were removed and diluted with 10 ml of ice-cold buffer I. After centrifuging at 1000×g for 3 minutes, the precipitate was resuspended in 10 ml of buffer I and the suspension was centrifuged again. The cell precipitates were each dissolved in 100 μl of 62.5 mM tris/HCl buffer (pH 6.8)/2% SDS/5% 2-mercaptoethanol/10% glycerol/0.001% Bromophenol blue, centrifuged at 48,000×g for 30 min and the clear supernatants were applied to discontinuous SDS slab gels (200×170×2.7 mm). After the electrophoretic separation, the gels were fixed and stained. To determine the distribution of the radioactivity, the individual gel tracks were divided into 2 mm sections, the proteins were digested with Biolute S by incubation with 0.5 ml, and after addition of 5 ml of Quickszint 501 scintillator, the samples were measured in a liquid scintillation counter.

[8] = tested on: freshly isolated hepatocytes; experiment: Metabolism by freshly isolated hepatocytes; assay type: in vitro ADME, rat; design: Distribution of the radioactivity: Metabolite 1 Rf = 0.32 / Distribution of the radioactivity: Metabolite 3 Rf = 0.21 (not identified): concentration or dose not given beside the values
Protocol: Freshly isolated hepatocytes (1.8×10^6) in 750 μl of buffer I were incubated at 37° C. with 5.5 μCi of "Example 5". After 10, 20, 30, 40 and 60 min, 100 μl of the cell suspension were removed in each case, diluted with 10 ml of ice-cold buffer I and centrifuged at 1000×g for 5 min. The cell precipitate was treated twice with 100 μl of chloroform/methanol solution (1/1, v/v) each time to extract the bile acid. The organic extracts were evaporated in a stream of N2, and the residues were each taken up in 20 μl of dioxane and applied to HPTLC thin layer plates. After developing the chromatogram using n-butanol/acetic acid/water (9:1:2, v/v/v) as the eluent, the plate was dried, sprayed with 1M sodium salicylate solution in methanol and, after drying, placed on a Kodak-X-Omat AR X-ray film. After exposure at -80° C. for 1 week, the film was developed and the distribution of the radioactivity was determined by densitometry. The distribution of the radioactivity in the individual metabolites is given in %.

T1 sequence (P02770 25-608): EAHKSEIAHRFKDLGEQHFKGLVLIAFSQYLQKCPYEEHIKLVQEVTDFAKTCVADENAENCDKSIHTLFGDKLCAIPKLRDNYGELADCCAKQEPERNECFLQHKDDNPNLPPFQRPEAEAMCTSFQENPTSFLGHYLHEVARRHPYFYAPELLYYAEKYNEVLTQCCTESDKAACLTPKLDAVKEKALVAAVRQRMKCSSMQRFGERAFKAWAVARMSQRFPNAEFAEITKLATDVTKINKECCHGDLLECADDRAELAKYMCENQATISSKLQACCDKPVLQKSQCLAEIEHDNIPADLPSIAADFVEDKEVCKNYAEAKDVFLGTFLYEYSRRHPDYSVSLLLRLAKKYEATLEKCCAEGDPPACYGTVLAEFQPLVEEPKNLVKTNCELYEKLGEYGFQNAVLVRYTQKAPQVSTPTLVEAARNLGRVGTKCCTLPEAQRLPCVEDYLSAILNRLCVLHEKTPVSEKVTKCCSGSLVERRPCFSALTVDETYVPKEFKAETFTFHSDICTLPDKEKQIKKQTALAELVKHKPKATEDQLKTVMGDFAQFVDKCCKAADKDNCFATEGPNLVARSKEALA

## C[C@H](CCC(=O)NCCS(=O)(=O)O)[C@H]1CC[C@H]2[C@@H]3CC[C@@H]4C[C@H](OC(=O)CCCc5ccc(N(CCCl)CCCl)cc5)CC[C@]4(C)[C@H]3CC(=O)[C@]12C [Example 3]
[1]
  % Inhibition of bile acid-binding proteins by 250 μM "Example 3": 90.5%
[2]
  % Inhibition of bile acid-binding proteins by 250 μM "Example 3": 93.2%
[3]
  % Inhibition of bile acid-binding proteins by 250 μM "Example 3": 98.1%
[4]
  % Inhibition of bile acid-binding proteins by 250 μM "Example 3": 88.1%
[5]
  % Inhibition of bile acid-binding proteins by 250 μM "Example 3": 88.8%
[6]
  % Inhibition of bile acid-binding proteins by 250 μM "Example 3": 89.6%

## [3H]C1(O)C[C@H]2[C@@H](CC[C@@H]3C[C@H](OC(=O)CCCc4ccc(N(CCCl)CCCl)cc4)CC[C@@]32C)[C@@H]2CC[C@H]([C@H](C)CCC(=O)NCCS(=O)(=O)O)[C@]21C (stereo partly shown) [Example 5]
[7]; in membranes, cytoplasm and cell organelles, result in words
  Radioactive labeling of liver cell proteins: leads to a radioactive labeling of liver cell proteins
[7]; incubation 0 min
  Radioactivity in labeled liver proteins: < 30 cpm
[7]; incubation 10 min, 48 kDa
  Radioactivity in labeled liver proteins: 408 cpm
[7]; incubation 10 min, 67 kDa
  Radioactivity in labeled liver proteins: 102 cpm
[7]; incubation 30 min, 28 kDa
  Radioactivity in labeled liver proteins: 2190 cpm
[7]; incubation 30 min, 33 kDa
  Radioactivity in labeled liver proteins: 1116 cpm
[7]; incubation 30 min, 42 kDa
  Radioactivity in labeled liver proteins: 1711 cpm
[7]; incubation 30 min, 48 kDa
  Radioactivity in labeled liver proteins: 1375 cpm
[7]; incubation 30 min, 54 kDa
  Radioactivity in labeled liver proteins: 1811 cpm
[7]; incubation 30 min, 122 kDa
  Radioactivity in labeled liver proteins: 1064 cpm
[7]; incubation 40 min, 28 kDa
  Radioactivity in labeled liver proteins: 2682 cpm
[7]; incubation 40 min, 33 kDa
  Radioactivity in labeled liver proteins: 1474 cpm
[7]; incubation 40 min, 42 kDa
  Radioactivity in labeled liver proteins: 2650 cpm
[7]; incubation 40 min, 48 kDa
  Radioactivity in labeled liver proteins: 2420 cpm
[7]; incubation 40 min, 54 kDa
  Radioactivity in labeled liver proteins: 2385 cpm
[7]; incubation 40 min, 122 kDa
  Radioactivity in labeled liver proteins: 1549 cpm
[7]; incubation 60 min, 28 kDa
  Radioactivity in labeled liver proteins: 2163 cpm
[7]; incubation 60 min, 42 kDa
  Radioactivity in labeled liver proteins: 1725 cpm
[7]; incubation 60 min, 48 kDa
  Radioactivity in labeled liver proteins: 2074 cpm
[7]; incubation 60 min, 54 kDa
  Radioactivity in labeled liver proteins: 1949 cpm
[7]; incubation 60 min, 122 kDa
  Radioactivity in labeled liver proteins: 997 cpm
[8]; incubation 10 min
  Distribution of the radioactivity: "Example 5" Rf = 0.49: 31.34%
  Distribution of the radioactivity: Metabolite 1 Rf = 0.32: 33.79%
  Distribution of the radioactivity: Metabolite 2 Rf = 0.36: 38.03%
  Distribution of the radioactivity: Metabolite 3 Rf = 0.21 (not identified): 5.62%
[8]; incubation 20 min
  Distribution of the radioactivity: "Example 5" Rf = 0.49: 26.51%
  Distribution of the radioactivity: Metabolite 1 Rf = 0.32: 29.49%
  Distribution of the radioactivity: Metabolite 2 Rf = 0.36: 32.25%
  Distribution of the radioactivity: Metabolite 3 Rf = 0.21 (not identified): 11.74%
[8]; incubation 30 min
  Distribution of the radioactivity: "Example 5" Rf = 0.49: 23.76%
  Distribution of the radioactivity: Metabolite 1 Rf = 0.32: 29.88%
  Distribution of the radioactivity: Metabolite 2 Rf = 0.36: 34.18%
  Distribution of the radioactivity: Metabolite 3 Rf = 0.21 (not identified): 12.16%
[8]; incubation 40 min
  Distribution of the radioactivity: "Example 5" Rf = 0.49: 13.78%
  Distribution of the radioactivity: Metabolite 1 Rf = 0.32: 33.52%
  Distribution of the radioactivity: Metabolite 2 Rf = 0.36: 40.93%
  Distribution of the radioactivity: Metabolite 3 Rf = 0.21 (not identified): 11.75%
[8]; incubation 60 min
  Distribution of the radioactivity: "Example 5" Rf = 0.49: 11.00%
  Distribution of the radioactivity: Metabolite 1 Rf = 0.32: 33.7%
  Distribution of the radioactivity: Metabolite 2 Rf = 0.36: 45.7%
  Distribution of the radioactivity: Metabolite 3 Rf = 0.21 (not identified): 10.3%
[8]; result in words
  Absorption into the cell interior by the liver cells: is absorbed into the cell interior by the liver cells
  Hydrolytic cleavage into free chlorambucil and bile acid: rapidly cleaved hydrolytically
